# Calls of active or inactive are those of the source.
# Assays:
# Leucine aminopeptidase = target: T1, Leucine aminopeptidase (Plasmodium falciparum 3D7, UniProt Q8IL11); test: P. falciparum M17LAP inhibitors, primary screen, biochemical, fluorogenic H-Leu-NHMec substrate, 1536-well (AID 1619); type: functional
# T1 sequence (Q8IL11 whole entry): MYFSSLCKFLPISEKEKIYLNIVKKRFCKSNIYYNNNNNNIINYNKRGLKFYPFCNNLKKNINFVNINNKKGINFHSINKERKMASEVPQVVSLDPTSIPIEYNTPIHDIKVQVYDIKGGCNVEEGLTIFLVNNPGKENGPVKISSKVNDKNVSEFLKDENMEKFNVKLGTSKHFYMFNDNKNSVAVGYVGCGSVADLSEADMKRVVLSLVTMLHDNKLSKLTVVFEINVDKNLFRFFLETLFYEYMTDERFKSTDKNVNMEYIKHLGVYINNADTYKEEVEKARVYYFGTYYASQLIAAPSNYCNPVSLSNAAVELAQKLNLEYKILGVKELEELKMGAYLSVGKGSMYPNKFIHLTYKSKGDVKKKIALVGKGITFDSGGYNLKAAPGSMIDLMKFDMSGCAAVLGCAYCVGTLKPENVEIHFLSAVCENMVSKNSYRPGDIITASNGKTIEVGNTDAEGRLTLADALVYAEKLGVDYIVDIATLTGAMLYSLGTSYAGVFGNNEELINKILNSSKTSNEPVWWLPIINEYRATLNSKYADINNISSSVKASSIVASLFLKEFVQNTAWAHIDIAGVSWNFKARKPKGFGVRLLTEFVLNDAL
# SN12K1 = test: cells; type: functional; conditions: Homo sapiens
# P388 = test: cells; type: functional; conditions: Mus musculus
# P388/ADR = test: cells; type: functional; conditions: Mus musculus
# HEK293 = test: EBV LMP1 TES2 canonical NF-kB signalling blockers – cell-based, HEK293, luciferase, cherry-pick, dose response (AID 588343); type: functional; conditions: Homo sapiens
# [1] = target: Heat shock protein HSP 90-alpha (Homo sapiens, UniProt P07900); type: functional, organism-based
# [2] = loss of viability in HepG2 cells – cell-based, CellTiter-Glo, cherry-picked, cytotoxicity control for Shn3 inhibitor project, dose response (AID 624134); type: functional
# [3] = reduction of Shn3 3'UTR-driven luciferase in osteoblasts – cell-based, Clone20 osteoblasts, firefly luciferase, cherry-picked, dose response (AID 624132); type: functional;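 note: firefly luciferase luminescence from reporter carrying the Shn3 3'UTR in osteoblasts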
# [4] = Trypanosoma cruzi growth suppression in host cells – NIH3T3 host cells, beta-gal luminescence, confirmation (AID 2044); type: functional, cell-based;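 note: intracellular parasites grown in NIH/3T3 mouse fibroblasts as host cells; luminescent beta-galactosidase reporter signal from transgenic T. cruzi replicating inside host cells; inhibitors lower the luminescence signal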
# [5] = non-specific 3'UTR reporter inhibition in Clone20-Shn3RL – cell-based, Renilla luciferase, cherry-picked, counter-screen for Shn3 inhibitor project, dose response (AID 624133); type: functional
# [6] = NIH3T3 cell viability loss – ATP luminescence, mouse fibroblasts, counter-screen, dose response (AID 2010); type: functional, cell-based;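 note: cells exposed to compound for about 90 hours before reading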
# [7] = luciferase reporter signal suppression in cells – H4 neuroglioma cells, luminescence, dose response (AID 1990); type: functional, cell-based
# [8] = alpha-synuclein stem-loop luciferase translation blockers – H4 neuroglioma cells, luminescence, confirmation (AID 1988); type: functional, cell-based
# [9] = Luminescence Cell-Based Dose Response HTS to Identify Inhibitors of 5'UTR Stem-Loop Driven Prion Protein mRNA Translation in H4 Neuroglioblastoma Cells. [Related pubchem assays: 1827 (Project Summary), 1813 (Primary HTS)]; type: functional
# [10] = HIV-1 AD8 envelope cell-cell fusion blockers – cherry-pick, dose response (AID 652062); type: functional, cell-based;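 note: luciferase signal from cell-cell fusion driven by HIV-1 clade B AD8 Env; potency is for inhibitors of fusion seen as a drop in luminescence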
# [11] = blockers of HIV-1 ZM109 envelope-driven cell-cell fusion – HeLa effector, CEM target cells, luciferase, cherry-pick, dose response (AID 652058); type: functional, cell-based;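 note: luciferase signal from HIV-1 Env mediated cell-cell fusion of effector and target cells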
# [12] = blockers of HIV-1 envelope-mediated cell-cell fusion – cherry-pick, dose response (AID 652057); type: functional, cell-based
# Cytochrome P450 3A4 [13] = target: T2, Cytochrome P450 3A4 (Homo sapiens, UniProt P08684); conditions: Potency
# Streptokinase A = target: T3, Streptokinase A (Streptococcus pyogenes serotype M1, UniProt P10520); test: viability-normalized secreted streptokinase activity reduction – plasminogen activation absorbance, OD405, dose response (AID 1914); type: functional, Streptococcus pyogenes M1 GAS;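 note: secreted streptokinase activity via plasminogen activation per viability signal from cell pellet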
# T3 sequence (P10520 whole entry): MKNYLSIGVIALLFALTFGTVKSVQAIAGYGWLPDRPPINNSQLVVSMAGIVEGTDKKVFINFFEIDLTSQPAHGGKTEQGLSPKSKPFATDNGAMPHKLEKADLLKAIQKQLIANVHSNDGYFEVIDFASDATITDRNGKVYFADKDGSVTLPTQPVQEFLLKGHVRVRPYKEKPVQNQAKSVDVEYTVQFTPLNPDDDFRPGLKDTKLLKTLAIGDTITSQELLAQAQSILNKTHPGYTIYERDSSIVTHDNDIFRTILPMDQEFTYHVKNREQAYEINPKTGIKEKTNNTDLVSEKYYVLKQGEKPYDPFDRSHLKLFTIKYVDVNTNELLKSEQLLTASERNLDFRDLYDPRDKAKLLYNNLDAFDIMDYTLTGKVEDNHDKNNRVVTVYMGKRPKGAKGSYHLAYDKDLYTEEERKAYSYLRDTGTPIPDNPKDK
# Streptococcus = test: GAS UMAA2166 growth inhibition – luminescence, BacTiterGlo, counter-screen for streptokinase expression inhibitor project, dose response (AID 1915); type: functional, organism-based;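 note: potency for reduction of bacterial viability or growth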
# [14] = system: Streptococcus sp. 'group A'; test: Streptococcus pyogenes SK(-)GAS viability under kanamycin – luminescence, BacTiterGlo, confirmation, counter-screen for streptokinase expression inhibitor project, dose response (AID 1900); type: functional, organism-based
# [15] = target: T4, Rac GTPase-activating protein 1 (Homo sapiens, UniProt Q9H0H5); test: blockers of MgcRacGAP-driven Rac1 GTP hydrolysis – biochemical, ADP Hunter fluorescence, primary and confirmatory, confirmation (AID 624330); type: functional
# T4 sequence (Q9H0H5 whole entry): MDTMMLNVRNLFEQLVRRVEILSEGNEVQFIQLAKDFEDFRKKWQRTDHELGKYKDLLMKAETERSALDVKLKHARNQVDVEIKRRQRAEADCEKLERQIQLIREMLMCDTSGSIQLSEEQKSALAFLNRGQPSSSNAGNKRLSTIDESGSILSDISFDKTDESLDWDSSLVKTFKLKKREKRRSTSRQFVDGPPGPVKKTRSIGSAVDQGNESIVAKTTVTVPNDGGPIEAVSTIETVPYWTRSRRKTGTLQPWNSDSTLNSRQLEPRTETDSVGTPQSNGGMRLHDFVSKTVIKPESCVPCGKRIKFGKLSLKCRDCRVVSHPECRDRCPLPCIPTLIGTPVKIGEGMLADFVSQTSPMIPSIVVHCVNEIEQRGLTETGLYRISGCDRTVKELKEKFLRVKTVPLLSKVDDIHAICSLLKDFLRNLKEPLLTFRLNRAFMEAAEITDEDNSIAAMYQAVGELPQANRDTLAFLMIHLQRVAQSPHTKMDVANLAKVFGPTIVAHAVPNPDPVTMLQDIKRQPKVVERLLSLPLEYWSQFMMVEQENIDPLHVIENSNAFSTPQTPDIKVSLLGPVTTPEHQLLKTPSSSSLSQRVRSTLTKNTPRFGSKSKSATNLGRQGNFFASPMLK
# Cytochrome P450 3A4 [16] = target: T2, Cytochrome P450 3A4
# [17] = Luminescence Cell-Based Dose Retest to Confirm Inhibitors of Cancer Stem Cells. [Related pubchem assays (depositor defined):AID2717, AID2721]; type: functional; conditions: Homo sapiens
# T2 sequence (P08684 whole entry): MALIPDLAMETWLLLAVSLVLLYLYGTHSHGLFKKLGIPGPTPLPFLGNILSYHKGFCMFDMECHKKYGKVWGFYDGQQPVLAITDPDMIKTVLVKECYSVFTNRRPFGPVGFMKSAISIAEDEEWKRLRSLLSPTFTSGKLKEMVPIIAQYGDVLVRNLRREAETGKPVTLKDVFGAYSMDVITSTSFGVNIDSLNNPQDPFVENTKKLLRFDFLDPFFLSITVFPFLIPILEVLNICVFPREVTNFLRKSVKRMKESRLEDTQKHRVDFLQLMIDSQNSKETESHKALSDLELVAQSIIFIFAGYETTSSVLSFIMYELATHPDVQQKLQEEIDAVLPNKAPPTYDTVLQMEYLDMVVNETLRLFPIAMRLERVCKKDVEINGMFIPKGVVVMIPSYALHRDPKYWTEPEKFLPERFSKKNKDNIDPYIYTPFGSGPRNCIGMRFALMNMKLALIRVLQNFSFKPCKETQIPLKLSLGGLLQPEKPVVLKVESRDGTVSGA
compound,measurement,setting,value
O=S(=O)(Nc1nc2ccccc2nc1NCCN1CCOCC1)c1cccc(Cl)c1,IC50,Leucine aminopeptidase,25.9 µM (active)
CSc1nc(CO)c(CO)n1C,GI50,SN12K1,> 100 µM (inactive)
same,GI50,P388,> 100 µM (inactive)
same,GI50,P388/ADR,> 100 µM (inactive)
c1ccc(C(=NNc2nc3ccccc3s2)c2ccccn2)cc1,AC50,HEK293,3.05 µM (active)
same,AC50,[1],16.4 µM (active)
Oc1nc(Nc2nc3ccccc3o2)nc2c1CCCC2,AC50,[2],9.63 µM (active)
same,AC50,[3],7.71 µM (active)
same,AC50,HEK293,2.05 µM (active)
same,EC50,[4],1.9 µM (active)
same,AC50,[5],5.26 µM (active)
same,EC50,[6],3.87 µM (active)
CSc1nc(NC2OC(CO)C(O)C(O)C2O)c(N)c(=O)[nH]1 (configuration not stated),GI50,SN12K1,> 100 µM (inactive)
same,GI50,P388,> 100 µM (inactive)
same,GI50,P388/ADR,> 100 µM (inactive)
CCOC(=O)c1c(NC(=O)C2C3C=CC(C3)C2C(=O)O)sc2c1CC(C)CC2 (configuration not stated),EC50,[7],> 120 µM (not active)
same,IC50,Leucine aminopeptidase,10.1 µM (active)
same,EC50,[8],48.1 µM (active)
same,EC50,[9],60.9 µM (active)
O=c1[nH]c2ccc(S(=O)(=O)N3CCN(Cc4ccccc4)CC3)cc2[nH]c1=O,IC50,Leucine aminopeptidase,2.62 µM (active)
COc1ccc(Cc2nnc(NS(=O)(=O)Cc3ccccc3)s2)cc1,IC50,Leucine aminopeptidase,6.34 µM (active)
CC(=O)Oc1cc2c(cc1OC(C)=O)OCC(c1ccccc1)C2 (configuration not stated),GI50,SN12K1,13.6 µM (inactive)
same,GI50,P388,4.16 µM (inactive)
same,GI50,P388/ADR,4.08 µM (inactive)
C[C@H](CO)N1C[C@H](C)[C@H](CN(C)S(=O)(=O)c2ccccc2)Oc2ccc(NS(=O)(=O)c3cccs3)cc2CC1=O,AC50,[10],12.6 µM (active)
same,AC50,[11],2.13 µM (active)
same,AC50,[12],557 nM (active)
O=C(O[C@@H]1Cc2c(O)cc(O)cc2OC1c1ccc(O)c(O)c1)c1cc(O)c(O)c(O)c1 (some centres not stated),AC50,Cytochrome P450 3A4 [13],25.1 µM (inconclusive)
COc1cccc(-c2cnc3c(c2)C(=O)N([C@H](C)CO)C[C@H](C)[C@H](CN(C)C(=O)Nc2cccc4ccccc24)O3)c1,AC50,[10],0.407 µM (active)
same,AC50,[11],0.284 µM (active)
same,AC50,[12],< 260 nM (active)
CCCCN(CC)c1c([N+](=O)[O-])cc(C(F)(F)F)cc1[N+](=O)[O-] [BENFLURALIN],AC50,Cytochrome P450 3A4 [13],15.8 µM (inconclusive)
Nc1cccc2c1C1=NNC(=O)CC1C2 (configuration not stated),GI50,SN12K1,> 100 µM (inactive)
same,GI50,P388,> 100 µM (inactive)
O=C(NC(=S)NNC(=O)c1ccc(Cl)cc1Cl)c1cccnc1,EC50,Streptokinase A,> 150 µM (not active)
same,IC50,Leucine aminopeptidase,49.6 µM (active)
same,EC50,Streptococcus,96.5 µM (active)
same,EC50,[14],5.27 µM (active)
COCCN(CCOC)c1nc(C)nc2c1nc(-c1ccccc1)n2CCCN(C)C,AC50,Cytochrome P450 3A4 [13],7.94 µM (inconclusive)
COc1ccc2c(=O)cc(-c3ccccc3)oc2c1O,AC50,Cytochrome P450 3A4 [13],39.8 µM (inconclusive)
Cc1cc(=O)oc2c(O)c(O)ccc12 [4-METHYLDAPHNETIN],IC50,[15],25.9 µM (active)
same,AC50,Cytochrome P450 3A4 [13],25.1 µM (inconclusive)
CC1=NNC(=O)C1CCC(=O)N/N=C\c1ccccc1[N+](=O)[O-] (configuration not stated),IC50,Leucine aminopeptidase,3.14 µM (active)
same,AC50,Cytochrome P450 3A4 [16],17.8 µM (inconclusive)
CNC(=O)SCC(N)C(=O)O (configuration not stated),GI50,SN12K1,62.2 µM (inactive)
same,GI50,P388,16.5 µM (inactive)
same,GI50,P388/ADR,16.8 µM (inactive)
Cc1ccccc1NC(=O)C(Cl)=C(Cl)Cl,AC50,HEK293,22.1 µM (active)
same,AC50,[17],6.73 µM (active)
C[C@H](CO)N1C[C@H](C)[C@H](CN(C)S(=O)(=O)c2ccccc2)Oc2ncc(/C=C/c3ccccc3)cc2C1=O,AC50,[11],3.51 µM (active)
CC1(C)C(O)CC(O)[C@]2(C)C1CC(O)[C@]1(C)C2CC[C@@]2(C)C(c3ccoc3)CC3OC312 (some centres not stated),AC50,Cytochrome P450 3A4 [13],3.16 µM (inconclusive)
C[C@H](CO)N1C[C@H](C)[C@H](CN(C)CC2CC2)Oc2ccc(NC(=O)Nc3ccc4c(c3)OCO4)cc2CC1=O,AC50,[10],20.5 µM (active)
same,AC50,[12],4410 nM (active)
c1ccc2c(c1)OCCc1cn[nH]c1-2,GI50,SN12K1,> 100 µM (inactive)
same,GI50,P388,> 100 µM (inactive)
same,GI50,P388/ADR,> 100 µM (inactive)
COc1ccc(CNC(=O)N(C)C[C@H]2OCc3ccccc3-c3ccccc3C(=O)N([C@H](C)CO)C[C@@H]2C)cc1,AC50,[10],3.51 µM (active)
same,AC50,[11],1.16 µM (active)
same,AC50,[12],826 nM (active)
COc1ccc2c(c1O)-c1cc(O)cc3c1[C@@H](C2)N(C)CC3,GI50,SN12K1,63.4 µM (inactive)
same,GI50,P388,9.1 µM (inactive)
same,GI50,P388/ADR,40.2 µM (inactive)

# Reference: ChEMBL document CHEMBL1201862, “PubChem BioAssay data set” (2004)
